The source of these data is US9302988B2, “Fluoromethyl-substituted pyrrole carboxamides” (GRÜNENTHAL GMBH, priority 2012, dated 2016).

For the assay, the target named is T1, Human CaV2.2 channels (Homo sapiens, UniProt Q00975).
T1 construct: expressed in transfected cells
T1 sequence (Q00975 whole entry): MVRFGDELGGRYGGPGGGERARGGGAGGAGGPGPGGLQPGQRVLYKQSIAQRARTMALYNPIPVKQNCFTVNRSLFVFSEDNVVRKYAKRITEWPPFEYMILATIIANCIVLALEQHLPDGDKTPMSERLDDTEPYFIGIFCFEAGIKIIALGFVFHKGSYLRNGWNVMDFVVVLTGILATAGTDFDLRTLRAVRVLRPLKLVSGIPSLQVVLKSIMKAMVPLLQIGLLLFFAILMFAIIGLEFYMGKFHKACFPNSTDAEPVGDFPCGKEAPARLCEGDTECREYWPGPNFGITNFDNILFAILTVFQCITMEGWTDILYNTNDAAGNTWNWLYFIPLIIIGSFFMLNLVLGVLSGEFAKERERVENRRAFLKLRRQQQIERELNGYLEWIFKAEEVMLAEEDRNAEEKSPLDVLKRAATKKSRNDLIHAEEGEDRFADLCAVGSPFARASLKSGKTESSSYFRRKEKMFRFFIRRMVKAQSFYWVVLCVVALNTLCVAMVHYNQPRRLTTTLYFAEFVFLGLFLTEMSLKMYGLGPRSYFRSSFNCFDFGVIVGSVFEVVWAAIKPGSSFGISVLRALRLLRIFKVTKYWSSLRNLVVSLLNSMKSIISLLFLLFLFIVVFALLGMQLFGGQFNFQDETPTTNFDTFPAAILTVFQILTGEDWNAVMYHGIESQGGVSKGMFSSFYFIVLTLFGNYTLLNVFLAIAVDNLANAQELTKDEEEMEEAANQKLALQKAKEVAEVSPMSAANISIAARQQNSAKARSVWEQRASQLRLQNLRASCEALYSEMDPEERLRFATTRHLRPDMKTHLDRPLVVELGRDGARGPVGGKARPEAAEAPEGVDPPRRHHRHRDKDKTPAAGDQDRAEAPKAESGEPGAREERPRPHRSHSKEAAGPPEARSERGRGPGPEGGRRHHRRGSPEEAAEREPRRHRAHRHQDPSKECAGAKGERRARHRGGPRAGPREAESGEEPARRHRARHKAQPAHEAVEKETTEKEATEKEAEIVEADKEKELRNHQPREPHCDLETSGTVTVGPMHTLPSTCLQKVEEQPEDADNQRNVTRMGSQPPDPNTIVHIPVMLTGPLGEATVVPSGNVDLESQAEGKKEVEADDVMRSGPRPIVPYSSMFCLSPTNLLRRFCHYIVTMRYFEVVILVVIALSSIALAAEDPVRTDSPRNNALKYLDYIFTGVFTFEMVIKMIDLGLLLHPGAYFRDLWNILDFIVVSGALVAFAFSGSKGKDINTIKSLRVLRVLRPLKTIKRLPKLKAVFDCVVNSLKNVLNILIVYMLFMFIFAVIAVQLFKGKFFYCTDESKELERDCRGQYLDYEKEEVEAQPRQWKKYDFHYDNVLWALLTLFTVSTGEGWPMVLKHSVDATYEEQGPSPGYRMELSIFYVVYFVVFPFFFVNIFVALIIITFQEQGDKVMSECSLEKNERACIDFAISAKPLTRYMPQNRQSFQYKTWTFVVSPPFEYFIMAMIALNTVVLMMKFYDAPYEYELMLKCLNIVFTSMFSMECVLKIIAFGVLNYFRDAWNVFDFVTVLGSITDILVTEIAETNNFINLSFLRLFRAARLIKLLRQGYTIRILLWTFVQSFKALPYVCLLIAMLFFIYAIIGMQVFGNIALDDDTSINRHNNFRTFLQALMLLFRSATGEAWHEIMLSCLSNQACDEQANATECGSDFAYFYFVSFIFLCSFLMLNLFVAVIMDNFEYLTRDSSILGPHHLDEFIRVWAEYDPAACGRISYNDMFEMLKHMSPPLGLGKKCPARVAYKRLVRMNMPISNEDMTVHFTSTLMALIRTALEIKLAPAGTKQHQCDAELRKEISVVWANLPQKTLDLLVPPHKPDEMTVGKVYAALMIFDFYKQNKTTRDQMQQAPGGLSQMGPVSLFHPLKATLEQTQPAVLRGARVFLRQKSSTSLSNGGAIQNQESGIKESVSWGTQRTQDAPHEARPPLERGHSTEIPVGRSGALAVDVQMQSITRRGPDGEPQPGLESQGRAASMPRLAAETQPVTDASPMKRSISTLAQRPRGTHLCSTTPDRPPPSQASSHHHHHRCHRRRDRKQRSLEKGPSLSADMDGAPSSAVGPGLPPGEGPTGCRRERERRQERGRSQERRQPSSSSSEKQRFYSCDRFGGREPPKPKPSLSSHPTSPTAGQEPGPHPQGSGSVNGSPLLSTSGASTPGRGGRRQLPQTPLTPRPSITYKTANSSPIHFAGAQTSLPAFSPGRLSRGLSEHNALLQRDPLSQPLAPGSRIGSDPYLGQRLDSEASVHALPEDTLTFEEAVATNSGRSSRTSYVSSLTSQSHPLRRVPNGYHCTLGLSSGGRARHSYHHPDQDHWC
T1 sequence (P54289 25-1103, further chain): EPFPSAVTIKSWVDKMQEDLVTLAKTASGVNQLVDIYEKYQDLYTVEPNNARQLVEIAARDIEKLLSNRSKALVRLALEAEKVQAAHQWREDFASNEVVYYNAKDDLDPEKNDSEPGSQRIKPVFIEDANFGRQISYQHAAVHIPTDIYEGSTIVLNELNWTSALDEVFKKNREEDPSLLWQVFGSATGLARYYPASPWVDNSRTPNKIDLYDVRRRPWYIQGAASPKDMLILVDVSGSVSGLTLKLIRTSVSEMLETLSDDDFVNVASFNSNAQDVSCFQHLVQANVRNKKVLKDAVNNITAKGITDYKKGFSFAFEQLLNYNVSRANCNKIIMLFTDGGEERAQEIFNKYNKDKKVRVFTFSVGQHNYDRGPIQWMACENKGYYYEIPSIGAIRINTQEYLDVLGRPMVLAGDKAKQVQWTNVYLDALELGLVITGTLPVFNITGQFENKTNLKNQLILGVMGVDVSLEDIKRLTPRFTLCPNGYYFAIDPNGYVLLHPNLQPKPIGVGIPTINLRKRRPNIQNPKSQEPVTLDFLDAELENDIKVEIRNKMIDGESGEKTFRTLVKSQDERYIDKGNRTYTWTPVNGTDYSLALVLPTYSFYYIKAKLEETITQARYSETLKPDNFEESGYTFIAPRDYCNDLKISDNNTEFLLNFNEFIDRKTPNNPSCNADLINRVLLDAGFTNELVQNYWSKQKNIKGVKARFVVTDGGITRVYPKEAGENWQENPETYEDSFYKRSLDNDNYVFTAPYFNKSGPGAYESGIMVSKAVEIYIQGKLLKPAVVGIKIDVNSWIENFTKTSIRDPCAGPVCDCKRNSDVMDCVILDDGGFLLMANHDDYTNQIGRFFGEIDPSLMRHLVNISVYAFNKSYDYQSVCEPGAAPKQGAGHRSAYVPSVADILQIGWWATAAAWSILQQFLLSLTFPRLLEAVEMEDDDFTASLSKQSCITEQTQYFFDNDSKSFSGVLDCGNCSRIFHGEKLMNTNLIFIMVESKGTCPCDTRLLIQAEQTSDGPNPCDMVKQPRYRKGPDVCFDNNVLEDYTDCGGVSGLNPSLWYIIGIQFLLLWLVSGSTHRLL
T1 sequence (P54284 whole entry, further chain): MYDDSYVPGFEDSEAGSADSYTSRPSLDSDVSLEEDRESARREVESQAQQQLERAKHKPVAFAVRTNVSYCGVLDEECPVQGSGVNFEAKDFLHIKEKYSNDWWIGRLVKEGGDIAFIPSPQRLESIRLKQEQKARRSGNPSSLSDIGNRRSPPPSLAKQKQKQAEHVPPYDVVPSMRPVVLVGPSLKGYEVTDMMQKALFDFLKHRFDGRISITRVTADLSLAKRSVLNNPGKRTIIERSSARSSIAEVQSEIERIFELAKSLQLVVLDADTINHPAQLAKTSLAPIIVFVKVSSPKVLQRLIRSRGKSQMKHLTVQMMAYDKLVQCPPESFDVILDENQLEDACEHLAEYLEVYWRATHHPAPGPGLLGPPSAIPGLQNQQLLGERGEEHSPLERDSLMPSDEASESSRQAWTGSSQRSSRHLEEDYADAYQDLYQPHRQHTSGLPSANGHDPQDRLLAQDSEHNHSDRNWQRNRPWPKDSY
Kind of assay: Fluorescent assay for CaV2.2 channels using potassium depolarization to induce channel opening (FLIPR, Fluo-4). The class given is cell-based. The note with it: 3 μM test compound, 30 mM KCl, HEK293 cells stably expressing human CaV2.2; read-out: %-Inhib (CaV2.2) @3 μM @30 mM KCl. The source says: In the process, the Ca^2+ influx is quantified in the FLIPR assay with the aid of a Ca^2+-sensitive dye (type Fluo-4, Molecular Probes Europe BV, Leiden, the Netherlands) in a fluorescent imaging plate reader (FLIPR 3, Molecular Devices, Sunnyvale, USA), as described hereinafter.
2.1 Fluorescent Assay for CaV2.2 Channels Using Potassium Depolarization to Induce Channel Opening
Human CaV2.2 channels were stably expressed in HEK293 cells together with alpha2-delta and beta subunits of voltage gated calcium channels. In addition, an inwardly rectifying potassium channel (Kir2.3) was stably expressed in these cells to augment control of the cell membrane potential by the concentration of extracellular potassium ions. Raise of the extracellular potassium concentration leads to depolarization of the membrane potential and thus regulates the voltage dependent state of CaV2.2 channels. For preparation, cells were seeded in black poly-D-lysine coated 96-well plates (Becton Dickinson, Biocoat 4640) in 100 μl medium [500 ml DMEM/F-12 plus Glutamax (Invitrogen 31331-093) plus 5.5 ml MEM NEAA 100× (Invitrogen 11140-035) plus 50 ml FBS decomplemented (Invitrogen 10270-106) plus 4.4 ml Geneticin (Invitrogen 10131-027) plus 1.1 ml Hygromycin B (Invitrogen 10687-010) plus 68.75 μl Puromycin (Clontech, 631306)] at a cell density of 45.000 cells per well.
Plates were incubated at 37° C. (5% CO2) for 20 to 23 hours. On the day of experiment medium was discarded and cells were loaded with Fluo 4 by addition of 100 μl of basic assay buffer (10 mM HEPES, 30 mM KCl, 120 mM NaCl, 0.8 mM CaCl2, 1.7 mM MgCl2, 10 mM Glucose, 0.1% BSA. pH 7.4) containing 2 μM Fluo 4 (Molecular Probes; F-14201), 0.01% pluronic acid (Molecular Probes; P-6866) and 2.5 mM probenecid (Molecular Probes; P36400). Cells were incubated in the dark at 25° C. for 60 min. Then the dye containing buffer was discarded and 100 μl basic assay buffer was added. Subsequently cells were incubated in the dark at 25° C. for 15 min. 25 μl of basic assay buffer with or without test compound were added and cells were incubated again in the dark at 25° C. for 15 min. Fluorescence intensity was measured on a FLIPR 3 instrument (Molecular Devices Corp., Sunnyvale, Calif.) with excitation at 480 nm and emission at 535 nm. After continuously reading fluorescence for 30 sec, 50 μl of basic assay buffer containing 210 mM KCl (NaCl omitted) were added for depolarization. Peak fluorescent signal intensity was determined and the amplitude of the peak signal, normalized to base line, was used to measure channel inhibition by test compounds.
Consider `Cc1c(-c2ccc(Cl)cc2)c(C(=O)N(C)CC(C)(C)O)n(Cc2ccccc2)c1C(F)(F)F` [SC-54, 1-Benzyl-3-(4-chlorophenyl)-N-(2-hydroxy-2-methyl-propyl)-N,4-dimethyl-5-(trifluoromethyl)-1H-pyrrole-2-carboxylic acid amide], for which the inhibition at 3 µM is greater than 95%. For the compound `COC1CCN(C(=O)c2c(-c3ccc(Cl)cc3)cc(C(F)(F)F)n2Cc2ccccc2)CC1` [SC-208, [1-Benzyl-3-(4-chlorophenyl)-5-(trifluoromethyl)-1H-pyrrol-2-yl]-(4-methoxy-piperidin-1-yl)-methanone], the inhibition at 3 µM was greater than 95%. Turning to `Cc1c(-c2ccc(Cl)cc2F)c(C(=O)N2CC(F)(F)C2)n(Cc2ccccc2)c1C(F)(F)F` [SC-100, [1-Benzyl-3-(4-chloro-2-fluoro-phenyl)-4-methyl-5-(trifluoromethyl)-1H-pyrrol-2-yl]-(3,3-difluoro-azetidin-1-yl)-methanone], the inhibition at 3 µM is 75 to 95%. Take `Cc1c(-c2ccc(Cl)cc2)c(C(=O)N(C)CC(C)(C)C)n(Cc2ccccc2)c1C(F)(F)F` [SC-04, 1-Benzyl-3-(4-chlorophenyl)-N-(2,2-dimethyl-propyl)-N,4-dimethyl-5-(trifluoromethyl)-1 H-pyrrole-2-carboxylic acid amide]: the inhibition at 3 µM lay within 75 to 95%.

As for `Cc1c(-c2ccc(Cl)cc2)c(C(=O)N2CCNC(C)(C)C2)n(Cc2ccccc2)c1C(F)(F)F` [SC-29, [1-Benzyl-3-(4-chlorophenyl)-4-methyl-5-(trifluoromethyl)-1H-pyrrol-2-yl]-(3,3-dimethyl-piperazin-1-yl)-methanone], the inhibition at 3 µM is greater than 95%. The value for `Cc1c(-c2ccc(C(F)(F)F)cc2)c(C(=O)N2CC(F)(F)C2)n(Cc2ccccc2)c1C(F)(F)F` [SC-96, [1-Benzyl-4-methyl-5-(trifluoromethyl)-3-[4-(trifluoromethyl)-phenyl]-1H-pyrrol-2-yl]-(3,3-difluoro-azetidin-1-yl)-methanone] was 40 to 75%; that for `Cc1c(-c2ccc(Cl)cc2F)c(C(=O)N2CCS(=O)(=O)CC2)n(Cc2ccccc2)c1C(F)(F)F` [SC-173, [1-Benzyl-3-(4-chloro-2-fluoro-phenyl)-4-methyl-5-(trifluoromethyl)-1H-pyrrol-2-yl]-(1,1-dioxo-[1,4]thiazinan-4-yl)-methanone] was greater than 95%. As for `Cc1c(-c2ccc(Cl)c(F)c2)c(C(=O)N2CC(O)C2)n(Cc2ccccc2)c1C(F)(F)F` [SC-247, [1-Benzyl-3-(4-chloro-3-fluoro-phenyl)-4-methyl-5-(trifluoromethyl)-1H-pyrrol-2-yl]-(3-hydroxy-azetidin-1-yl)-methanone], the inhibition at 3 µM lay within 40 to 75%. Turning to `Cc1c(-c2ccc(Cl)cc2)c(C(=O)N(C)CC2(CO)CC2)n(Cc2ccccc2)c1C(F)(F)F` [SC-115, 1-Benzyl-3-(4-chlorophenyl)-N-[[1-(hydroxymethyl)-cyclopropyl]-methyl]-N,4-dimethyl-5-(trifluoromethyl)-1H-pyrrole-2-carboxylic acid amide], the inhibition at 3 µM is greater than 95%. For the compound `Cc1c(-c2ccc(Cl)cc2F)c(C(=O)N2CCOCC2)n(Cc2ccccc2)c1C(F)(F)F` [SC-62, [1-Benzyl-3-(4-chloro-2-fluoro-phenyl)-4-methyl-5-(trifluoromethyl)-1H-pyrrol-2-yl]-morpholin-4-yl-methanone], the inhibition at 3 µM is greater than 95%. `Cc1c(-c2ccc(Cl)cc2)c(C(=O)N2CCN(C)C(=O)C2)n(Cc2ccccc2)c1C(F)(F)F` [SC-09, 4-[1-Benzyl-3-(4-chlorophenyl)-4-methyl-5-(trifluoromethyl)-1H-pyrrole-2-carbonyl]-1-methyl-piperazin-2-one]: the inhibition at 3 µM lay within 75 to 95%. On to `Cc1c(-c2ccc(Cl)cc2)c(C(=O)N(C)C)n(Cc2ccccc2)c1C(F)(F)F` [SC-18, 1-Benzyl-3-(4-chlorophenyl)-N,N,4-trimethyl-5-(trifluoromethyl)-1H-pyrrole-2-carboxylic acid amide], for which the inhibition at 3 µM is 75 to 95%.

As to `Cc1c(-c2ccc(Cl)c(F)c2)c(C(=O)N2CCOCC2)n(Cc2ccccc2)c1C(F)(F)F` [SC-103, [1-Benzyl-3-(4-chloro-3-fluoro-phenyl)-4-methyl-5-(trifluoromethyl)-1H-pyrrol-2-yl]-morpholin-4-yl-methanone], the inhibition at 3 µM lay within 75 to 95%.

`Cc1c(-c2ccc(C(F)(F)F)cc2)c(C(=O)N2CC(O)C2)n(Cc2ccccc2)c1C(F)(F)F` [SC-232, [1-Benzyl-4-methyl-5-(trifluoromethyl)-3-[4-(trifluoromethyl)-phenyl]-1H-pyrrol-2-yl]-(3-hydroxy-azetidin-1-yl)-methanone]: the inhibition at 3 µM lay in the range of 40 to 75%. Take `Cc1c(-c2ccc(Cl)cc2)c(C(=O)N(C)C2(CO)CC2)n(Cc2ccccc2)c1C(F)(F)F` [SC-48, 1-Benzyl-3-(4-chlorophenyl)-N-[1-(hydroxymethyl)-cyclopropyl]-N,4-dimethyl-5-(trifluoromethyl)-1H-pyrrole-2-carboxylic acid amide]: the inhibition at 3 µM was greater than 95%. Take `Cc1c(-c2ccc(OCC(F)(F)F)cc2)c(C(=O)N(C)CC(C)(C)C)n(Cc2ccccc2)c1C(F)(F)F` [SC-260, 1-Benzyl-N,4-dimethyl-N-neopentyl-3-(4-(2,2,2-trifluoroethoxy)phenyl)-5-(trifluoromethyl)-1H-pyrrole-2-carboxamide]: the inhibition at 3 µM lay within 40 to 75%.

`CN(CC(C)(C)C)C(=O)c1c(-c2ccc(Cl)cc2)c(C2CC2)c(C(F)(F)F)n1Cc1ccccc1` [SC-120, 1-Benzyl-3-(4-chlorophenyl)-4-cyclopropyl-N-(2,2-dimethyl-propyl)-N-methyl-5-(trifluoromethyl)-1H-pyrrole-2-carboxylic acid amide]: the inhibition at 3 µM lay within 75 to 95%. The value for `CN(CC(C)(C)C#N)C(=O)c1c(-c2ccc(Cl)cc2)cc(C(F)(F)F)n1Cc1ccccc1` [SC-187, 1-Benzyl-3-(4-chlorophenyl)-N-(2-cyano-2-methyl-propyl)-N-methyl-5-(trifluoromethyl)-1H-pyrrole-2-carboxylic acid amide] was greater than 95%; that for `Cc1c(-c2ccc(Cl)cc2)c(C(=O)N(C)CC2(CO)CCC2)n(Cc2ccccc2)c1C(F)(F)F` [SC-116, 1-Benzyl-3-(4-chlorophenyl)-N-[[1-(hydroxymethyl)-cyclobutyl]-methyl]-N,4-dimethyl-5-(trifluoromethyl)-1H-pyrrole-2-carboxylic acid amide] was greater than 95%; that for `Cc1c(-c2ccc(Cl)cc2F)c(C(=O)N2CCCC2CS(C)(=O)=O)n(Cc2ccccc2)c1C(F)(F)F` (stereo not shown) [SC-162, [1-Benzyl-3-(4-chloro-2-fluoro-phenyl)-4-methyl-5-(trifluoromethyl)-1H-pyrrol-2-yl]-[2-(methylsulfonyl-methyl)-pyrrolidin-1-yl]-methanone] was greater than 95%.

With `CN(CC(C)(C)CN1CCOCC1)C(=O)c1c(-c2ccc(Cl)cc2)cc(C(F)(F)F)n1Cc1ccccc1` [SC-180, 1-Benzyl-3-(4-chlorophenyl)-N-(2,2-dimethyl-3-morpholin-4-yl-propyl)-N-methyl-5-(trifluoromethyl)-1H-pyrrole-2-carboxylic acid amide], the inhibition at 3 µM is 75 to 95%. Regarding `Cc1c(-c2ccc(Cl)cc2)c(C(=O)N(C)C(C)(C)CCO)n(Cc2ccccc2)c1C(F)(F)F` [SC-122, 1-Benzyl-3-(4-chlorophenyl)-N-(3-hydroxy-1,1-dimethyl-propyl)-N,4-dimethyl-5-(trifluoromethyl)-1H-pyrrole-2-carboxylic acid amide], the inhibition at 3 µM was greater than 95%.
